{
  "source": "patent US9963463B2",
  "about": "“Urea-substituted indanes as P38 map kinase inhibitors” (TORRENT PHARMACEUTICALS LIMITED, priority 2014, dated 2018)",
  "key": {"[1]": {"target": "T1, purified recombinant human p38 alpha MAPK (Homo sapiens, UniProt Q16539)", "T1 construct": "purchased Millipore, USA", "T1 sequence (Q16539 whole entry)": "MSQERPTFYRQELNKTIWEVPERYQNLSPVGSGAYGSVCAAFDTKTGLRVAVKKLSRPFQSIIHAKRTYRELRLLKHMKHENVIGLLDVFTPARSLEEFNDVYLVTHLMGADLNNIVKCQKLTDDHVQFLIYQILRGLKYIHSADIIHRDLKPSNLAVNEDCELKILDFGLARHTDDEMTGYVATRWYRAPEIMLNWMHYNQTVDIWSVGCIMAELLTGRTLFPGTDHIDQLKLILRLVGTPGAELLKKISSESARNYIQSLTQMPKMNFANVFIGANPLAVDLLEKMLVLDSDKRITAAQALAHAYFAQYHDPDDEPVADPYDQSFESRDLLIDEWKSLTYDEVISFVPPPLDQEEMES", "assay": "Inhibition of p38 alpha MAPK activity, TR-FRET kinase assay", "type": "biochemical", "conditions": "Concentration 1 μM; read-out: P38α Inhibition", "method_in_brief": "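Recombinant human p38α preincubated 15 min at RT with compound (0.5–1.0% DMSO), then 30 nM biotinylated GST-ATF2 and 100 μM ATP added for 60 min at RT. Stopped with EDTA; Eu-anti-phospho-ATF2 and APC-streptavidin detection, 60 min. % inhibition from 665/615 nm TR-FRET ratio.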"}, "[2]": {"tested_on": "cigarette smoke induced Neutrophil accumulation in BAL Fluid", "assay": "Acute mouse model of airway inflammation (tobacco smoke), BAL neutrophils", "type": "in vivo", "conditions": "mice, aerosol exposure 25 minutes; for Neutrophil (*10^3 cells/animal): BAL fluid, Mean ± SEM; for % Inhibition: neutrophil vs vehicle group", "text": "In vivo efficacy evaluation of compounds in animal model of airway inflammation: The tobacco smoke induced airway inflammation model is used for in-vivo efficacy of compound. Many investigators have used acute tobacco smoke (TS) exposure in rodents as models of airway inflammation for quick screening of anti-inflammatory therapies (J Pharmacol Exp Ther. 2008; 324(3):921-9; J Pharmacol Exp Ther. 2010; 332(3):764-75; Journal of Inflammation 2013, 10(Suppl 1):31 and Eur Respir J Suppl 2006; 663s:3850).\nA: Efficacy Studies in Acute Mouse Model of Airway Inflammation\nMice were exposed to tobacco smoke (TS) in an acrylic chamber. Animals were exposed to TS from 8, 12, 16 cigarettes on day 1, day 2, day 3 respectively. From day 4 onwards till day 11, animals were exposed to TS from 20 cigarettes per day. Like human COPD associated inflammation, acute exposure of mice to TS induced significant inflammatory cell, predominantly neutrophil recruitment to lungs as compared to air exposed control mice (BALF neutrophil levels, nil in air control group vs 178±29.1*10^3 cells/animal in smoke exposed vehicle group).\nLung delivery of test compound was achieved by whole body aerosol exposure for 25 minutes in a chamber. Mice were divided in different dose groups and exposed in a chamber for 25 minutes with vehicle or Compound 12 (0.3 mg/ml) or Compound 12 (3 mg/ml). A total quantity of 3.5 ml of either vehicle or test compound formulation was nebulized in a chambers to respective groups over 25 mins period. Test compounds were administered 2 hr prior to TS exposure from day 6 to day 11. Bronchoalveolar lavage (BAL) was performed 24 hr post last TS exposure.\nTrachea of animal was cannulated using catheter. Phosphate Buffer Saline (PBS) was used as lavage fluid. A volume of 0.5 ml was gently instilled and withdrawn and collected in microcentrifuge tube placed on ice. This procedure was repeated further 2 times.\nLavage fluid was separated from cells by centrifugation and supernatant separated. The cell pallet was resuspended in known volume of PBS. Cells in aliquot were stained using Turk solution and total cell numbers were calculated by counting Turk stained aliquot under microscope using haemocytometer.\nThe residual cell suspension was resuspended and slides prepared using cyto centrifuge technique (Cytospin 4, Thermo Shandon). The slides were then fixed with methanol, air dried and stained with May Grunwald Giemsa stain. Up to 300 cells were counted and differentiated using standard morphometric techniques under light microscopy.\nAll results are presented at individual data for each animal and mean value calculated for each group. Percentage inhibition for the neutrophil was calculated for Compound 12 treatment group against vehicle group. Results are summarized herein below: […]"}, "[3]": {"tested_on": "BALF fluid inflammatory cell influx and lung function", "assay": "Chronic model of COPD in guinea pigs (tobacco smoke and LPS, 18 weeks)", "type": "in vivo", "conditions": "guinea pig, chronic TS/LPS COPD model, 3 mg/ml, aerosol exposure 50 minutes", "text": "Observation: It was observed that compound of present invention was found effective in inhibition of neutrophil influx, an index of pulmonary inflammation in guinea pig model of airway inflammation. […] (II) Efficacy Studies in Chronic Model of COPD in Guinea Pigs.\nGuinea pigs were exposed to tobacco smoke (TS) and Lipopolysaccharide (LPS) in an acrylic chamber. Exposure to TS and LPS is given in following manner in a week for a total of 18 weeks.\nLung delivery of test material was achieved by whole body aerosol exposure for 50 minutes in a chamber. Guinea pig were divided in different dose groups and exposed to either vehicle or compound no 43 (3 mg/ml). A total quantity of 7.0 ml of either vehicle or compound no 43 (suspension formulation with D90<5μ, with Malvern Mastersizer®) was nebulized in chambers to respective groups over 50 mins period. Compound no 43 or vehicle was administered 2 hr prior to TS/LPS exposure once daily from week 9 to week 18. Control animals were exposed to room air instead of TS and PBS instead of LPS. Lung function and bronchoalveolar lavage (BAL) for each animal was performed 24 hr post last TS exposure. […]\n(§1) Lavage fluid was separated from cells by centrifugation and supernatant separated. […] Cells in aliquot were stained using Turk solution and total cell numbers were calculated by counting Turk stained aliquot under microscope using haemocytometer.\nThe residual cell suspension was resuspended and slides prepared using cyto centrifuge technique (Cytospin 4, Thermo Shandon). […] Up to 300 cells were counted and differentiated using standard morphometric techniques under light microscopy.\nAll results are presented at individual data for each animal and mean value calculated for each group. Percentage inhibition for the neutrophil was calculated for compound no 43 treatment group against vehicle group. […]"}, "[4]": {"tested_on": "cigarette smoke induced inflammatory cell accumulation in BAL Fluid", "assay": "Acute guinea pig model of airway inflammation (tobacco smoke), BAL neutrophils", "type": "in vivo, Guinea pigs", "conditions": "acute TS model, 6 mg/ml, aerosol exposure 75 minutes", "text": "Observation: It was observed that compound of present invention was found effective in inhibition of neutophil influx, an index of pulmonary inflammation. […] B. (I) Efficacy Studies in Acute Guinea Pig Model of Airway Inflammation\nGuinea pigs were exposed to tobacco smoke (TS) in an acrylic chamber. Animals were exposed to TS from 5, 10, 15 cigarettes on day 1, day 2, day 3 respectively. From day 4 onwards till day 11, animals were exposed to TS from 15 cigarettes per day. […]\nLung delivery of test compound was achieved by whole body aerosol exposure for 75 minutes in a chamber. […] A total quantity of 7.0 ml of either vehicle or test compound formulation (suspension formulation with D90<5μ, with Malvern Mastersizer®) was nebulized in chambers to respective groups over 75 mins period. […]\nas §1\nThe residual cell suspension was resuspended and slides prepared using cyto centrifuge technique (Cytospin 4, Thermo Shandon). […] Up to 300 cells were counted and differentiated using standard morphometric techniques under light microscopy. All results are presented at individual data for each animal and mean value calculated for each group. […]"}},
  "data": [
    {"compound": "Cc1ccc(-n2nc(C(C)(C)C)cc2NC(=O)Nc2ccc(OCCN3CCN(CC4CC4)C(=O)C3)c3c2CCC3)cc1", "note": "[Compound 12, 1-[3-tert-butyl-1-(4-methylphenyl)-1H-pyrazol-5-yl]-3-(7-{2-[4-(cyclopropylmethyl)-3-oxopiperazin-1-yl]ethoxy}-2,3-dihydro-1H-inden-4-yl)urea]", "values": [
      {"measurement": "inhibition at 1 µM", "setting": "[1]", "value": "80 to 100", "unit": "%"},
      {"measurement": "Neutrophil (*10^3 cells/animal)", "setting": "[2]; formulation strength 0.3 mg/ml", "value": "107 ± 18.5 *10^3 cells/animal"},
      {"measurement": "Neutrophil (*10^3 cells/animal)", "setting": "[2]; formulation strength 3 mg/ml", "value": "69.6 ± 11.1 *10^3 cells/animal"},
      {"measurement": "% Inhibition", "setting": "[2]; formulation strength 0.3 mg/ml", "value": 40, "unit": "%"},
      {"measurement": "% Inhibition", "setting": "[2]; formulation strength 3 mg/ml", "value": 61, "unit": "%"}
    ]},
    {"compound": "CCS(=O)(=O)Nc1cc(C(C)(C)C)cc(NC(=O)Nc2ccc(OCCN3CCN(CC4CC4)C(=O)C3)c3c2CCC3)c1OC", "note": "[Compound 43, N-(5-tert-butyl-3-{[(7-{2-[4-(cyclopropylmethyl)-3-oxopiperazin-1-yl]ethoxy}-2,3-dihydro-1H-inden-4-yl)carbamoyl]amino}-2-methoxyphenyl)ethanesulfonamide]", "values": [
      {"measurement": "inhibition at 1 µM", "setting": "[1]", "value": "80 to 100", "unit": "%"},
      {"measurement": "Neutrophil (*10^6cells)", "setting": "[3]; BALF, once daily week 9 to 18, Mean ± SEM", "value": "4.0 ± 0.70 *10^6cells"},
      {"measurement": "lung function parameters (FRC, RV, IC/TLC ratio, RV/TLC ratio)", "setting": "[3]; FIGS. 1A, 1B, 2A, 2B", "value": "significantly improves lung function aspects"},
      {"measurement": "% inhib^n", "setting": "[3]; neutrophil vs vehicle group", "value": 32, "unit": "%"},
      {"measurement": "Effect on inflammatory cell influx Neutrophil (*10^6cells)", "setting": "[4]; BAL fluid, Mean ± SEM", "value": "0.8 ± 0.20 *10^6cells"},
      {"measurement": "Effect on inflammatory cell influx % inhib^n", "setting": "[4]; neutrophil vs vehicle group", "value": 57, "unit": "%"}
    ]},
    {"compound": "COc1cc(-n2nc(C(C)(C)C)cc2NC(=O)Nc2ccc(OCCN3CCN(CC4CC4)C(=O)C3)c3c2CCC3)cc(OC)c1OC", "note": "[Compound 70, 1-[3-tert-butyl-1-(3,4,5-trimethoxyphenyl)-1H-pyrazol-5-yl]-3-(7-{2-[4-(cyclopropylmethyl)-3-oxopiperazin-1-yl]ethoxy}-2,3-dihydro-1H-inden-4-yl)urea]", "values": [
      {"measurement": "inhibition at 1 µM", "setting": "[1]", "value": "40 to 60", "unit": "%"}
    ]},
    {"compound": "COc1c(NC(=O)Nc2ccc(OCCN3CCn4c(nnc4C4CCCCC4)C3)c3c2CCC3)cc(C(C)(C)C)cc1NS(C)(=O)=O", "note": "[Compound 72, N-{5-tert-butyl-3-[({7-[2-(3-cyclohexyl-5,6-dihydro[1,2,4]triazolo[4,3-a]pyrazin-7(8H)-yl)ethoxy]-2,3-dihydro-1H-inden-4-yl}carbamoyl)amino]-2-methoxyphenyl}methanesulfonamide]", "values": [
      {"measurement": "inhibition at 1 µM", "setting": "[1]", "value": "40 to 60", "unit": "%"}
    ]},
    {"compound": "COc1c(NC(=O)Nc2cc(C)c(OCCN3CCn4c(nnc4-c4cc(Cl)ccc4O)C3)c3c2CCC3)cc(C(C)(C)C)cc1NS(C)(=O)=O", "note": "[Compound 73, N-(5-tert-butyl-3-{[(7-{2-[3-(5-chloro-2-hydroxyphenyl)-5,6-dihydro[1,2,4]triazolo[4,3-a]pyrazin-7(8H)-yl]ethoxy}-6-methyl-2,3-dihydro-1H-inden-4-yl)carbamoyl]amino}-2-methoxyphenyl)methanesulfonamide]", "values": [
      {"measurement": "inhibition at 1 µM", "setting": "[1]", "value": "40 to 60", "unit": "%"}
    ]},
    {"compound": "COc1c(NC(=O)Nc2ccc(OCCN3CCn4c(nnc4-c4cccc5ccccc45)C3)c3c2CCC3)cc(C(C)(C)C)cc1NS(C)(=O)=O", "note": "[Compound 74, N-(5-tert-butyl-2-methoxy-3-{[(7-{2-[3-(naphthalen-1-yl)-5,6-dihydro[1,2,4]triazolo[4,3-a]pyrazin-7(8H)-yl]ethoxy}-2,3-dihydro-1H-inden-4-yl)carbamoyl]amino}phenyl)methanesulfonamide]", "values": [
      {"measurement": "inhibition at 1 µM", "setting": "[1]", "value": "60 to 80", "unit": "%"}
    ]}
  ]
}
